Literature values, collected in US9187467B2, “2-phenyl benzothiazole linked imidazole compounds as potential anticancer agents and process for the preparation thereof” (Council of Scientific and Industrial Research, priority 2012, dated 2015).

Columns and labels:
Design in all cases: unit not given here
786-0 = details: previous compounds (U.S. Pat. No. 7,384,966); cited from earlier work
DU-145 = details: previous compounds (U.S. Pat. No. 7,384,966); cited from earlier work
K-562 = details: previous compounds (U.S. Pat. No. 7,384,966); cited from earlier work
HS 578T = details: previous compounds (U.S. Pat. No. 7,384,966); cited from earlier work
A549/ATCC = details: previous compounds (U.S. Pat. No. 7,384,966); cited from earlier work
HL-60 (TB) = details: previous compounds (U.S. Pat. No. 7,384,966); cited from earlier work
NCI-H23 = details: previous compounds (U.S. Pat. No. 7,384,966); cited from earlier work
SF-539 = details: previous compounds (U.S. Pat. No. 7,384,966); cited from earlier work
NCI/ADR-RES = details: listed as head printed RES (second line of NCI/ADR-RES); previous compounds (U.S. Pat. No. 7,384,966); cited from earlier work
SW-620 = details: previous compounds (U.S. Pat. No. 7,384,966); cited from earlier work
CAKI-1 = details: previous compounds (U.S. Pat. No. 7,384,966); cited from earlier work
M14 = details: previous compounds (U.S. Pat. No. 7,384,966); cited from earlier work
NCI-H522 = details: previous compounds (U.S. Pat. No. 7,384,966); cited from earlier work
OVCAR-8 = details: previous compounds (U.S. Pat. No. 7,384,966); cited from earlier work
SNB-19 = details: previous compounds (U.S. Pat. No. 7,384,966); cited from earlier work
OVCAR-3 = details: previous compounds (U.S. Pat. No. 7,384,966); cited from earlier work
UACC-62 = details: previous compounds (U.S. Pat. No. 7,384,966); cited from earlier work
SF-295 = details: previous compounds (U.S. Pat. No. 7,384,966); cited from earlier work
HOP-62 = details: previous compounds (U.S. Pat. No. 7,384,966); cited from earlier work
SN12C = details: previous compounds (U.S. Pat. No. 7,384,966); cited from earlier work
PC-3 = details: previous compounds (U.S. Pat. No. 7,384,966); cited from earlier work
UO-31 = details: previous compounds (U.S. Pat. No. 7,384,966); cited from earlier work
CCRF-CEM = details: previous compounds (U.S. Pat. No. 7,384,966); cited from earlier work
U251 = details: previous compounds (U.S. Pat. No. 7,384,966); cited from earlier work
MOLT-4 = details: previous compounds (U.S. Pat. No. 7,384,966); cited from earlier work
MALME-3M = details: previous compounds (U.S. Pat. No. 7,384,966); cited from earlier work
LOX IMVI = details: previous compounds (U.S. Pat. No. 7,384,966); cited from earlier work
SNB-75 = details: previous compounds (U.S. Pat. No. 7,384,966); cited from earlier work
ACHN = details: previous compounds (U.S. Pat. No. 7,384,966); cited from earlier work
SF-268 = details: previous compounds (U.S. Pat. No. 7,384,966); cited from earlier work
EKVX = details: previous compounds (U.S. Pat. No. 7,384,966); cited from earlier work
MDA-MB-231/ATCC = details: previous compounds (U.S. Pat. No. 7,384,966); cited from earlier work
UACC-257 = details: previous compounds (U.S. Pat. No. 7,384,966); cited from earlier work
BT-549 = details: previous compounds (U.S. Pat. No. 7,384,966); cited from earlier work

Measured: Log10GI50

COc1ccc(-c2nc3ccc(F)cc3s2)cc1OC [Compound 3d]
>−4.0: all assays above
